From ChEMBL document CHEMBL1201862, “PubChem BioAssay data set” (2004)
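96-well plates; 48 h exposure; 5 concentrations. Endpoints by linear interpolation between flanking doses. Not reached: highest tested concentration assigned. At the GI50, growth is halved.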 Calls of active or inactive are those of the source. Cut-off read from the data, not from the text of the source: active = GI50 up to about 1.1 µM and inactive = higher.

Experiments:
Experiment in all cases: inhibition of tumour cell growth, NCI panel, 48 h
A498 = system: A498
ACHN = system: ACHN
CCRF-CEM = system: CCRF-CEM
EKVX = system: EKVX
HCC 2998 = system: HCC 2998
HOP-92 = system: HOP-92
IGROV-1 = system: IGROV-1
NCI-H23 = system: NCI-H23
OVCAR-5 = system: OVCAR-5
SF-539 = system: SF-539
SK-MEL-5 = system: SK-MEL-5
CAKI-1 = system: CAKI-1
M14 = system: M14
UACC-62 = system: UACC-62

Measured: GI50

CC1(C)OCC(C(O)C2OC(C)(C)OC2/C=N\O)O1 (stereo not given)
inactive: A498 > 100 µM | ACHN > 100 µM | CCRF-CEM > 100 µM | EKVX > 100 µM | HCC 2998 > 100 µM | HOP-92 > 100 µM | IGROV-1 > 100 µM | NCI-H23 > 100 µM | OVCAR-5 > 100 µM | SF-539 > 100 µM | SK-MEL-5 > 100 µM

CC1(C)C2C=CC1C(=O)CC2 (stereo not given)
inactive: A498 > 100 µM | ACHN > 100 µM | CAKI-1 > 100 µM | CCRF-CEM > 100 µM | EKVX > 100 µM | HCC 2998 > 100 µM | HOP-92 > 100 µM | M14 > 100 µM | NCI-H23 > 100 µM | OVCAR-5 > 100 µM | SF-539 > 100 µM | SK-MEL-5 > 100 µM

CCOC(=O)CCn1[nH]c(=O)c(Cl)c(Cl)c1=O
inactive: A498 > 100 µM | ACHN > 100 µM | CAKI-1 > 100 µM | CCRF-CEM > 100 µM | EKVX > 100 µM | HCC 2998 > 100 µM | HOP-92 > 100 µM | IGROV-1 > 100 µM | M14 > 100 µM | NCI-H23 > 100 µM | OVCAR-5 > 100 µM | SK-MEL-5 > 100 µM | UACC-62 > 100 µM

CC1CCC(C(C)C)C(O[C@@H]2OC(=O)C[C@@H]2Sc2ccccc2)C1 (stereo not given in full)
inactive: A498 28.6 µM | ACHN 20 µM | CAKI-1 23.3 µM | CCRF-CEM 7.01 µM | EKVX 34 µM | HCC 2998 24.7 µM | IGROV-1 40.2 µM | M14 23.2 µM | NCI-H23 26.2 µM | OVCAR-5 43 µM | SF-539 23.5 µM | SK-MEL-5 16.2 µM | UACC-62 24.7 µM

O=C(C/C(CCC(=O)N(Cc1ccccc1)Cc1ccccc1)=N/Nc1ccc([N+](=O)[O-])cc1[N+](=O)[O-])c1ccccc1
inactive: CCRF-CEM 35.9 µM | EKVX > 100 µM | HCC 2998 74.5 µM | HOP-92 > 100 µM | IGROV-1 > 100 µM | M14 68.9 µM | NCI-H23 > 100 µM | OVCAR-5 > 100 µM | SF-539 54 µM | UACC-62 25.9 µM

OCC1=CC(NC2CC(CO)C(O)C(O)C2O)C(O)C(O)C1O (stereo not given)
inactive: ACHN > 100 µM | CCRF-CEM > 100 µM | EKVX > 100 µM | IGROV-1 > 100 µM | M14 > 100 µM | NCI-H23 > 100 µM | SF-539 > 100 µM | UACC-62 > 100 µM

Cc1c2ccncc2c(C)c2c1[nH]c1ccc(O)c(OCC(F)(F)F)c12
inactive: A498 15.2 µM | CAKI-1 9.62 µM | CCRF-CEM 2.33 µM | EKVX 10.3 µM | HCC 2998 9.42 µM | HOP-92 5.47 µM | IGROV-1 8.22 µM | M14 9.55 µM | NCI-H23 6.1 µM | OVCAR-5 12.6 µM | SF-539 6.05 µM | SK-MEL-5 5.56 µM | UACC-62 10.5 µM
